According to patent US20210317090A1, “AMINO ACID DEPLETION AGENTS AS ANTIPROLIFERATIVE AGENTS” (University of Central Florida Research Foundation, Inc., priority 2018, published 2021):
Like-named read-outs stand apart in the source and are kept apart here.

Columns and labels:
L3.6pl cells [1] = assay: Ant-44 toxicity potentiation assay in L3.6pl cells; type: cell-based, human
Protocol: As performed previously with CHO K1 cells, L3.6pl cells were treated with compounds 9 (1666.177) and 10 (1666.255) and a fixed dose of Ant-44 to observe the potentiation effect. The 72 h IC50 dose of Ant-44 in L3.6pl cells was previously determined to be 4 μM. For this study, half that dose was used to replicate the large window used in the CHO experiments to look at reduction in cell viability. In a 96-well plate, L3.6pl cells were dosed with a fixed concentration of Ant-44 (2 μM) and increasing doses of compounds 9 (1666.177) and 10 (1666.255). Although both compounds were effective at reducing cell viability, higher doses were required compared to CHO K1 cells.
FIG. 6 is an example according to various embodiments, illustrating the ability of compounds 9 (1666.177) and 10 ([…]) to potentiate the effect of Ant-44 in L3.6pl cells. Cells were incubated for 72 h at 37° C. with the respective compound and Ant-44 (2 μM). A 250 μM AG solution was incubated with the cells for 24 h prior to addition of compounds. […] Both compounds are nontoxic at the second highest concentration tested (1 μM).

L3.6pl cells [2] = assay: Rescue by exogenous native polyamines in L3.6pl cells; type: cell-based, human; conditions: 72 h, polyamine 1 μM or 5 μM, compound 10 at toxic dose (5 μM or higher)
Protocol: The question remained as to whether exogenous polyamines could enter and ‘rescue’ the cells back to the growth rate of untreated control. A series of experiments were conducted to determine if cells treated with compound 10 could be rescued by exogenous polyamines. To test this hypothesis, L3.6pl cells were incubated for 72 h with an increasing dose of compound 10 and a dose of one of the native polyamines (putrescine, spermidine, or spermine either at a fixed dose of 1 μM or 5 μM).
FIG. 10A is an example according to various embodiments, illustrating the inability of native polyamine putrescine (Put at 1 μM and 5 μM) to rescue L3.6pl cells treated with compound 10 (e.g., from 2-15 μM). FIG. 10B is an example according to various embodiments, illustrating inability of native polyamine spermidine (Spd at 1 μM and 5 μM) to rescue L3.6pl cells treated with compound 10 (e.g., from 2-15 μM). FIG. 10C is an example according to various embodiments, illustrating inability of the native polyamine spermine (Spm at 1 μM and 5 μM) to rescue L3.6pl cells treated with compound 10 (2-15 μM). The L3.6pl cells were incubated with 250 μM aminoguanidine (AG) for 24 h prior to the addition of compound 10, followed by 72 h incubation at 37° C. […]

CHO K1 cells = assay: Cytotoxicity dose-response (MTS cell viability) in CHO K1 cells; type: cell-based, Chinese hamster
Protocol: CHO K1 Studies. Wild type Chinese hamster ovary (CHO K1) cells were chosen to first study the synthetic compounds' impact on polyamine metabolism. The CHO K1 cell line has high polyamine transport activity and was useful in screening compounds for their polyamine transport inhibitor activity. A dose-response curve was obtained for each compound to determine their toxicity in CHO K1 cells after 48 h incubation. Compound 9 (1666.177) was non-toxic up to the highest dose tested (15 μM).
(§1) Regarding the biological studies performed in the following examples, it is noted that CHO K1, CHO-MG, and L3.6pl cells were grown in RPMI 1640 medium supplemented with 10% fetal bovine serum (FBS) and 1% penicillin/streptomycin. All cells were grown at 37° C. under a humidified 5% CO2 atmosphere. Aminoguanidine (1 mM used for CHO K1 and CHOMG cells and 250 μM for L3.6pl) was added to the growth medium to prevent oxidation of the compounds of the bovine serum amine oxidase enzyme that is present in calf serum. The cells used were in early to mid log phase and CHO and CHOMG were plated out at 1000 cells/well, whereas the L3.6pl cells were plated at 500 cells/well in a 96 well plate format.
(§2) This example illustrates aspects according to various embodiments pertaining to IC50 determinations and cell viability studies. Cell growth was assayed in sterile 96-well microtiter plates (Costar 3599, Corning, N.Y.). CHO K1 or CHOMG cells were plated at 1,000 cells/70 μL and L3.6pl cells at 500 cells/70 μL. The drug solutions of appropriate concentration in phosphate buffered saline (PBS) were added 10 μL per well after overnight incubation. After drug exposure (e.g., for 48 h for CHO K1 and CHO-MG and 48 h or 72 h for L3.6pl), cell growth was determined by measuring formazan formation from the 3-(4,5dimethylthiazol-2-yl)-5-(3-carboxymethoxyphenyl)-2-(4-sulfenyl)-2H tetrazolium, inner salt (MTS) using SynergyMx Biotek microplate reader for absorbance (490 nm) measurements.^27 All experiments were run in triplicate.

[3] = system: L3.6pl human pancreatic cancer cells; assay: Cytotoxicity dose-response (MTS) in L3.6pl cells; type: cell-based; conditions: for IC50: Homo sapiens, L3.6pl cells
Protocol: L3.6pl Studies. Compounds 9 and 10 were evaluated in the metastatic human pancreatic cancer cell line, L3.6pl. L3.6pl has a K-ras mutation, and high polyamine uptake activity.^7 A dose-response curve was obtained for each compound in L3.6pl cells to determine the 72 h L3.6pl IC50 value, described as the dose at which L3.6pl cells were 50% viable compared to the untreated control.
as §1, §2

CHO-MG cells = assay: Cytotoxicity IC50 (MTS) in polyamine-transport-deficient CHO-MG cells; type: cell-based, Chinese hamster; conditions: Cricetulus griseus, 48 h
Protocol: as §1
as §2, with “The drug solutions of appropriate concentration in phosphate buffered saline (PBS) were added 10 μL per well after overnight incubation.” left out

CC(C)CCN1CCN(C(CNCc2ccccc2)CC2CCCCC2)CC1CC(C)C.Cl.Cl.Cl (stereo not shown) [Compound 10, Benzyl-{3-cyclohexyl-2-[3-isobutyl-4-(3-methyl-butyl)-piperazin-1-yl]-propyl}-amine trihydrochloride salt]
effectiveness at increasing the potency of Ant-44 relative to compound 9 (L3.6pl cells [1]): approximately eleven times more effective
EC50 (L3.6pl cells [1]; Homo sapiens, Ant-44 2 μM, 72 h): 0.29 ± 0.1 µM
rescue of treated cells by putrescine, spermidine or spermine (L3.6pl cells [2]): none of the three native polyamines (at 1 μM or 5 μM) were able to rescue
toxicity of compound alone (CHO K1 cells; CHO K1, highest concentration tested (5 μM), 48 h): nontoxic
IC50 (CHO K1 cells; Cricetulus griseus, CHO K1 cells, 48 h incubation): 10.8 ± 0.22 µM
IC50 ([3]; 48 h, read-out: 48 h IC50): 3.48 ± 0.3 µM
IC50 ([3]; 72 h, read-out: 72 h IC50): 5.9 ± 0.2 µM
toxicity of compound alone ([3]; L3.6pl, second highest concentration tested (1 μM), 72 h): nontoxic
toxicity to L3.6pl cancer cells relative to CHO K1 and CHO-MG cell lines ([3]; from 48 h IC50 values): approximately three fold more toxic
IC50 (CHO-MG cells): 8.93 ± 0.75 µM
